Data published in patent US20260271931A1, “HERBICIDAL MIXTURES” (Bayer Aktiengesellschaft, priority 2023, published 2026).
Like-named read-outs stand apart in the source and are kept apart here.

Assays:
Format in all cases: in vivo
Centaurea cyanus (CENCY) [1] = assay: Post-emergence action against weeds, greenhouse pot test, visual rating: Centaurea cyanus; conditions: 240 h, read-out: Herbicidal effect [%] on CENCY 10 DAT
[2] = test system: Pharbitis purpurea (PHBPU); assay: Post-emergence action against weeds, greenhouse pot test, visual rating: Pharbitis purpurea
Description: (§1) When the observed efficacies already exceed the formal sum total of the values of the tests with individual applications, they also exceed the expected value according to Colby, which is calculated using the formula below and is likewise regarded as an indication of synergism (cf. S. R. Colby; in Weeds 15 (1967) pp. 20 to 22):
(§2) where: • A=efficacy of the active ingredient (A) in % at an application rate of a [g a.i./ha]; • B=efficacy of the active ingredient (B) in % at an application rate of b [g a.i./ha]; • E^C=expected value of the effect of the combination (A)+(B) in % at the combined application rate a+b [g a.i./ha].
(§3) The observed values (E^A) from the experiments, given suitable low dosages, show an effect of the combinations exceeding the expected values according to Colby (E^C) (Δ).
(§4) Seeds of mono- and dicotyledonous weeds were placed in sandy loam in pots, covered with soil and grown in a greenhouse under good growth conditions (temperature, air humidity, water supply). Two to three weeks after sowing, the test plants were treated at the two- to four-leaf stage with the compositions of the invention. The compositions of the invention, formulated as spray powders or as emulsion concentrates, were sprayed onto the green parts of the plant in various dosages with an application rate equivalent to […] of water. After the test plants had been kept in the greenhouse under optimum growth conditions for 3 weeks, the activity of the preparations was rated visually in comparison to untreated controls.
(§5) 100% efficacy means complete control of the particular weed tested.
(§6) 0% efficacy means zero control of the particular weed tested.
(§7) Expected values according to Colby are reported under E.
(§8) The exceedance of the expected value E is given as Δ (=synergistic effect).
(§9) The rating period is reported in days after application (DAT).

Eleusine indica (ELEIN) = assay: Post-emergence action against weeds, greenhouse pot test, visual rating: Eleusine indica; conditions: Eleusine indica, post-emergence; for pest or weed control at 0.4 g/ha: 0.4 g a.i./ha; for pest or weed control at 3 g/ha: 3 g a.i./ha
Description: as §1, §2, §3, §4, §5, §6, §7, §8, §9

[3] = test system: Brachiaria platyfylla (BRAPP); assay: Post-emergence action against weeds, greenhouse pot test, visual rating: Brachiaria platyfylla; conditions: post-emergence; for pest or weed control at 0.4 g/ha: 0.4 g a.i./ha; for pest or weed control at 3 g/ha: 3 g a.i./ha
Description: as §1, §2, §3, §4, §5, §6, §7, §8, §9

Centaurea cyanus (CENCY) [4] = assay: Post-emergence action against weeds, greenhouse pot test, visual rating: Centaurea cyanus
Description: as §1, §2, §3, §4, §5, §6, §7, §8, §9

Avena fatua (AVEFA) = assay: Post-emergence action against weeds, greenhouse pot test, visual rating: Avena fatua
Lolium rigidum (LOLRI) = assay: Post-emergence action against weeds, greenhouse pot test, visual rating: Lolium rigidum
Kochia scoparia (KCHSC) = assay: Post-emergence action against weeds, greenhouse pot test, visual rating: Kochia scoparia
Bidens pilosa (BIDPI) = assay: Post-emergence action against weeds, greenhouse pot test, visual rating: Bidens pilosa
[5] = test system: Echinochloa crus-galli (ECHCG); assay: Post-emergence action against weeds, greenhouse pot test, visual rating: Echinochloa crus-galli; conditions: 1 g a.i./ha
[6] = test system: Sorghum halepense (SORHA); assay: Post-emergence action against weeds, greenhouse pot test, visual rating: Sorghum halepense
Description: as §1, §2, §3, §4, §5, §6, §7, §8, §9

[7] = 240 h, read-out: Herbicidal effect [%] on ELEIN 10 DAT
[8] = 504 h, read-out: Herbicidal effect [%] on ELEIN 21 DAT
[9] = 240 h, read-out: Herbicidal effect [%] on BRAPP 10 DAT
[10] = 504 h, read-out: Herbicidal effect [%] on BRAPP 21 DAT

`CC(C)N(C)S(=O)(=O)NC(=O)c1cc(-n2c(=O)cc(C(F)(F)F)n(C)c2=O)c(F)cc1Cl` [Saflufenacil, saflufenacil] was tested, and the pest or weed control at 0.4 g/ha (Centaurea cyanus (CENCY) [1]; 0.4 g a.i./ha) was 40%, the “Herbicidal effect [%] on PHBPU 21 DAT” value ([2]; 0.4 g a.i./ha) was 80% and the pest or weed control at 0.4 g/ha (Eleusine indica (ELEIN); [7]) was 30%. It also gave a pest or weed control at 0.4 g/ha (Eleusine indica (ELEIN); [8]) of 0%, a pest or weed control at 0.4 g/ha [3, 9] of 10% and a pest or weed control at 0.4 g/ha [3, 10] of 0%. The “Herbicidal effect [%] on CENCY 21 DAT” value (Centaurea cyanus (CENCY) [4]; 0.4 g a.i./ha) was 30%, the pest or weed control at 0.4 g/ha (Avena fatua (AVEFA); Avena fatua, 240 h, 10 DAT, 0.4 g a.i./ha, read-out: Herbicidal effect [%] on AVEFA 10 DAT) was 10% and the “Herbicidal effect [%] on LOLRI 10 DAT” value (Lolium rigidum (LOLRI); 0.4 g a.i./ha, 10 DAT) was 10%. The pest or weed control at 0.4 g/ha (Lolium rigidum (LOLRI); Lolium rigidum, 504 h, 0.4 g a.i./ha, 21 DAT, read-out: Herbicidal effect [%] on LOLRI 21 DAT) was 0%, the “Herbicidal effect [%] on KCHSC 10 DAT” value (Kochia scoparia (KCHSC); 0.4 g a.i./ha) was 10% and the pest or weed control at 0.4 g/ha (Kochia scoparia (KCHSC); Bassia scoparia, post-emergence, 504 h, 0.4 g a.i./ha, read-out: Herbicidal effect [%] on KCHSC 21 DAT) was 10%.

For `N#Cc1cc(Br)c(O)c(Br)c1` [Bromoxynil, bromoxynil], the pest or weed control at 80 g/ha (Centaurea cyanus (CENCY) [1]; 80 g a.i./ha) was 30%, the “Herbicidal effect [%] on PHBPU 10 DAT” value ([2]; 80 g a.i./ha) was 50% and the pest or weed control at 80 g/ha (Eleusine indica (ELEIN); 240 h, 80 g a.i./ha, read-out: Herbicidal effect [%] on ELEIN 10 DAT) was 0%. For the same compound, the “Herbicidal effect [%] on BIDPI 10 DAT” value (Bidens pilosa (BIDPI); 80 g a.i./ha) was 50% and the pest or weed control at 80 g/ha (Avena fatua (AVEFA); Avena fatua, 240 h, 10 DAT, 80 g a.i./ha, read-out: Herbicidal effect [%] on AVEFA 10 DAT) was 0%.

With `COc1cc(OC)nc(NC(=O)NS(=O)(=O)c2cc(NC=O)ccc2C(=O)N(C)C)n1` [Foramsulfuron, foramsulfuron] the pest or weed control at 1 g/ha (Centaurea cyanus (CENCY) [1]; 1 g a.i./ha) was 30%, the “Herbicidal effect [%] on BIDPI 10 DAT” value (Bidens pilosa (BIDPI); 1 g a.i./ha) was 20% and the “Herbicidal effect [%] on BIDPI 21 DAT” value (Bidens pilosa (BIDPI); 1 g a.i./ha) was 30%. For the same compound, the “Herbicidal effect [%] on ECHCG 10 DAT” value [5] was 70%, the “Herbicidal effect [%] on AVEFA 21 DAT” value (Avena fatua (AVEFA); 21 DAT, 1 g a.i./ha) was 70% and the pest or weed control at 1 g/ha (Avena fatua (AVEFA); Avena fatua, 240 h, 10 DAT, 1 g a.i./ha, read-out: Herbicidal effect [%] on AVEFA 10 DAT) was 60%. For the same compound, the “Herbicidal effect [%] on SORHA 21 DAT” value ([6]; 1 g a.i./ha) was 20% and the pest or weed control at 1 g/ha (Kochia scoparia (KCHSC); Bassia scoparia, post-emergence, 504 h, 1 g a.i./ha, read-out: Herbicidal effect [%] on KCHSC 21 DAT) was 20%.

In the case of `CS(=O)(=O)c1ccc(C(=O)C2C(=O)CCCC2=O)c(Cl)c1COCC(F)(F)F` [Tembotrione, tembotrione], the pest or weed control at 3 g/ha (Centaurea cyanus (CENCY) [1]; 3 g a.i./ha) is reported as 40%, the “Herbicidal effect [%] on PHBPU 21 DAT” value ([2]; 3 g a.i./ha) is reported as 30% and the pest or weed control at 3 g/ha (Eleusine indica (ELEIN); [7]) is reported as 60%. The pest or weed control at 3 g/ha (Eleusine indica (ELEIN); [8]) was 40%, the “Herbicidal effect [%] on BIDPI 21 DAT” value (Bidens pilosa (BIDPI); 3 g a.i./ha) was 30% and the pest or weed control at 3 g/ha [3, 9] was 40%. For the same compound, the pest or weed control at 3 g/ha [3, 10] was 20%, the “Herbicidal effect [%] on CENCY 21 DAT” value (Centaurea cyanus (CENCY) [4]; 3 g a.i./ha) was 30% and the pest or weed control at 3 g/ha (Lolium rigidum (LOLRI); Lolium rigidum, 504 h, 3 g a.i./ha, 21 DAT, read-out: Herbicidal effect [%] on LOLRI 21 DAT) was 20%. For the same compound, the “Herbicidal effect [%] on SORHA 10 DAT” value ([6]; 3 g a.i./ha, 10 DAT) was 80%, the “Herbicidal effect [%] on SORHA 21 DAT” value ([6]; 3 g a.i./ha) was 20% and the “Herbicidal effect [%] on KCHSC 10 DAT” value (Kochia scoparia (KCHSC); 3 g a.i./ha) was 20%. It also gave a pest or weed control at 3 g/ha (Kochia scoparia (KCHSC); Bassia scoparia, post-emergence, 504 h, 3 g a.i./ha, read-out: Herbicidal effect [%] on KCHSC 21 DAT) of 10%.

`CCOC(=O)COc1cc(-c2nn(C)c(OC(F)F)c2Cl)c(F)cc1Cl` [Pyraflufen-ethyl, pyraflufen-ethyl] was tested, and the pest or weed control at […] (Centaurea cyanus (CENCY) [1]) was 88%, the pest or weed control at […] (Eleusine indica (ELEIN); [8]) was 0% and the “Herbicidal effect [%] on BIDPI 10 DAT” value (Bidens pilosa (BIDPI); 7.5 g a.i./ha) was 88%. For the same compound, the “Herbicidal effect [%] on BIDPI 21 DAT” value (Bidens pilosa (BIDPI); 7.5 g a.i./ha) was 80%, the “Herbicidal effect [%] on CENCY 21 DAT” value (Centaurea cyanus (CENCY) [4]; 7.5 g a.i./ha) was 88% and the “Herbicidal effect [%] on SORHA 21 DAT” value ([6]; 7.5 g a.i./ha) was 10%.

In the case of `CSc1nnc(C(C)(C)C)c(=O)n1N` [Metribuzin, metribuzin], the pest or weed control at 15 g/ha (Centaurea cyanus (CENCY) [1]; 15 g a.i./ha) is reported as 0%, the “Herbicidal effect [%] on PHBPU 10 DAT” value ([2]; 15 g a.i./ha) is reported as 0% and the pest or weed control at 15 g/ha (Eleusine indica (ELEIN); 504 h, 15 g a.i./ha, read-out: Herbicidal effect [%] on ELEIN 21 DAT) is reported as 10%. It also gave a pest or weed control at 15 g/ha (Lolium rigidum (LOLRI); Lolium rigidum, 504 h, 15 g a.i./ha, 21 DAT, read-out: Herbicidal effect [%] on LOLRI 21 DAT) of 0%.

`CCC(CC)Nc1c([N+](=O)[O-])cc(C)c(C)c1[N+](=O)[O-]` [Pendimethalin, pendimethalin] was tested, and the pest or weed control at 100 g/ha (Centaurea cyanus (CENCY) [1]; 100 g a.i./ha) was 0%, the pest or weed control at 100 g/ha (Eleusine indica (ELEIN); 504 h, 100 g a.i./ha, read-out: Herbicidal effect [%] on ELEIN 21 DAT) was 0% and the pest or weed control at 100 g/ha (Kochia scoparia (KCHSC); Bassia scoparia, post-emergence, 504 h, 100 g a.i./ha, read-out: Herbicidal effect [%] on KCHSC 21 DAT) was 10%.

`CS(=O)(=O)NC(=O)c1cc(Oc2ccc(C(F)(F)F)cc2Cl)ccc1[N+](=O)[O-]` [Fomesafen, fomesafen] was tested, and the pest or weed control at […] (Centaurea cyanus (CENCY) [1]; 1.5 g a.i./ha) was 20%, the pest or weed control at […] (Eleusine indica (ELEIN); 504 h, 1.5 g a.i./ha, read-out: Herbicidal effect [%] on ELEIN 21 DAT) was 0% and the “Herbicidal effect [%] on BIDPI 10 DAT” value (Bidens pilosa (BIDPI); 1.5 g a.i./ha) was 30%. The “Herbicidal effect [%] on BIDPI 21 DAT” value (Bidens pilosa (BIDPI); 1.5 g a.i./ha) was 20%, the pest or weed control at […] ([3]; 504 h, 1.5 g a.i./ha, read-out: Herbicidal effect [%] on BRAPP 21 DAT) was 0% and the “Herbicidal effect [%] on CENCY 21 DAT” value (Centaurea cyanus (CENCY) [4]; 1.5 g a.i./ha) was 30%. For the same compound, the pest or weed control at […] (Lolium rigidum (LOLRI); Lolium rigidum, 504 h, 1.5 g a.i./ha, 21 DAT, read-out: Herbicidal effect [%] on LOLRI 21 DAT) was 0%, the “Herbicidal effect [%] on KCHSC 10 DAT” value (Kochia scoparia (KCHSC); 1.5 g a.i./ha) was 10% and the pest or weed control at […] (Kochia scoparia (KCHSC); Bassia scoparia, post-emergence, 504 h, 1.5 g a.i./ha, read-out: Herbicidal effect [%] on KCHSC 21 DAT) was 0%.
